Earlier results, collected in US7976880B2, “Pregnane glycoside compositions and Caralluma extract products and uses thereof” (priority 2003, dated 2011).
Like-named read-outs stand apart in the source and are kept apart here.

Tested on: appetite
Details: 3 mg per kg body weight

O=C(O)CC(O)(C(=O)O)C(O)C(=O)O (single isomer, unassigned; (-)) [HCA, (−)-hydroxycitrate]
Reduction in appetite (at 6.5 hours): about 43% | Reduction in appetite (at 24 hours): about 29%
